Here are results for two compounds from patent US5348980A, “Enantiomers derived from (S)-2-amino-2-(3,4-dichlorobenzyl)-1-propanol, their use and method of preparation” (Institute de Recherche Jouveinal, priority 1992, dated 1994).

The subject of test [1] is bronchoconstriction caused by 100 μmol/kg of histamine. In words: Histamine-induced bronchoconstriction test (Konzett and Rossler), intraduodenal (i.d.) administration. Conditions: for ED50: Cavia porcellus; for ED50, inhibition of histamine-induced bronchoconstriction, t = 20': 20 min. The format is in vivo, guinea pigs. The text has this: (§1) Furthermore, the antihistaminic properties were studied in guinea pigs by the bronchoconstriction test performed according to the method of H. Konzett and R. Rossler (Arch. Exp. Path. Pharmak.--Naunym Schmiedeberg - 195, 71-74, 1940).
(§2) The products of the invention were studied in this test after administration in solution or in suspension via the intravenous and intraduodenal routes, and also in powder form via the intranasal route.
(§3) Irrespective of the administration route, the preparation of the animals employed in the test consists in first anesthetizing male guinea pigs weighing 350 to 400 g by intraperitoneal (i.p.) injection of a sterile and isotonic solution containing 25% (w/v.) of ethyl carbamate on the basis of 6.0 ml/kg, and in then fitting the animals with a tracheal cannula to permit measurement of the pulmonary pressure, a cannula in the right jugular vein for the intravenous (i.v.) administration of solution, and also a cannula in the left carotid artery for qualitative observation of the blood pressure.
(§4) The animals are then connected to a pump (Harvard, ref. 50-1718) in order to maintain an artificial ventilation at a frequency of 60 insufflations per minute; the intratracheal pressure is recorded by an assembly comprising a transducer, an amplifier and a recorder (Gould, respective refs.: PLOEZ, 13-4615-50 and 8188-G4400-06).
(§5) Fitted in this way, the animals are left undisturbed for 10 minutes before the beginning of the actual experiment, which is carried out in different ways according to the administration route envisaged.
In base form, the test products are suspended in a solution containing 1% w/v of carboxymethylcellulose (CMC), and, in salt form, they are dissolved in an isotonic solution before being administered via a cannula whose end is placed in the animal's duodenum.
The time schedule for the successive administrations of histamine via the i.v. route and that for the test solution via the i.d. route are identical to that described above in a).
(§6) - Calculation and expression of the results:
(§7) For each administration route and for each time of administration of histamine, the activity of the products is expressed as the percentage change in amplitude of bronchoconstriction, calculated relative to that produced by the "control" administration of histamine which precedes the administration of the test product. The % change is calculated according to the formula: [formula] in which: Bc(tx) represents the amplitude of the bronchoconstriction in mm at time x,
(§8) Bo(tx) the amplitude of the base-line respiration in mm at time x,
(§9) Bc(to) and Bo(to) the corresponding amplitudes in mm on receipt of the "control" administration of histamine which precedes that of the test product.
(§10) The inhibitory activity of the test products on histamine-induced bronchoconstriction is expressed at different times of the studies as their ED50, which is the effective dose of product, expressed in μmol/kg, capable of inhibiting 50% of the histamine-induced bronchoconstriction at the time in question.
(§11) Failing this expression, the results are expressed as a % change at the time in question and for a given concentration of the test product. Under these conditions, a positive percentage corresponds to a potentiating effect on bronchoconstriction and, conversely, a negative percentage to an inhibitory effect.
(§12) Statistical analyses of the results were carried out by the Student t test. A value of p<0.05 is considered significant.
(§13) The compounds of the invention described in Examples 1 and 2 were employed in these tests. In addition, as a comparative product for the eutomer of Example 1, the racemic (R,S) compound corresponding to it, and which is described and prepared in Example 7 of U.S. Pat. No. 4,994,617, was employed. […]

Test [2] relates to bronchoconstriction caused by ovalbumin in the sensitized animal. Briefly: Inhibition of ovalbumin-induced anaphylactic bronchoconstriction in sensitized guinea pigs, oral. The format is in vivo. To be noted: Cavia porcellus, 1 h, intratracheal pressure after 60 minutes, read-out: ED50 inhibiting 50% of ovalbumin-induced bronchoconstriction. How it is done: The technique performed consists in previously sensitizing guinea pigs weighing 250 to 300 g by two intraperitoneal injections, separated by an interval of 24 hours, of 0.5 ml of a sterile suspension of physiological saline (0.9% NaCl) containing 20 μg of ovalbumin (Grade V; Sigma) and 100 mg of aluminum hydroxide Al(OH)3. At the same time, unsensitized control animals are treated with two injections of suspension not containing ovalbumin. The actual experiment is performed after a period needed for the sensitization of the animals, which is between 14 and 21 days. It is generally arrived at after 18 days, and consists in first administering increasing quantities of the test product in solution in water orally to groups of 5 animals, on the basis of 0.5 to 1.0 ml per animal, corresponding to doses of 1 to 10 μmol/kg of product. The animals are then anesthetized 50 minutes after this administration by an intraperitoneal injection of a solution of urethane. […] After 60 minutes, the intratracheal pressure measured in mm of Hg is determined for each animal of the test groups and those of the control group. These measurements enable the extent of the inhibition of bronchoconstriction produced by the test product to be determined. […]

Test [3] has as its system bronchoconstriction caused by 100 μmol/kg of histamine. Briefly: Histamine-induced bronchoconstriction test (Konzett and Rossler), i.v. administration. The format is in vivo, guinea pigs. Conditions: for ED50: Cavia porcellus, iv.
Excerpt: as §1, §2, §3, §4, §5
In base form, the test products are dissolved in an isotonic solution (0.9% NaCl) containing 10% (v/v) of Transcutol (R). Dilutions are performed by adding isotonic solution. In salt, in particular hydrochloride, form, the solutions are prepared in the isotonic solution.
The treatment of the animals consists of a series of administrations of histamine dihydrochloride solution on the basis of 100 μmol/kg before and after treatment with the solution of test product, which is carried out according to the following time schedule:
t=-20 minutes - histamine (100 μmol/kg)
t=-10 minutes - ditto control
t=0 - injection of the test product
t=+10 minutes - histamine (100 μmol/kg)
as §6, §7, §8, §9, §10, §11, §12, §13

The mark [4] stands for this setting: 10 min, t = 10', read-out: ED50, inhibition of histamine-induced bronchoconstriction, t = 10'.
Setting [5] is: 0.5 h, t = 30', read-out: ED50, inhibition of histamine-induced bronchoconstriction, t = 30'.
Setting [6] is: 40 min, t = 40', read-out: ED50, inhibition of histamine-induced bronchoconstriction, t = 40'.
[7] abbreviates: 50 min, t = 50', read-out: ED50, inhibition of histamine-induced bronchoconstriction, t = 50'.
[8] abbreviates: 1 h, t = 60', read-out: ED50, inhibition of histamine-induced bronchoconstriction, t = 60'.

The structures appear in SMILES notation. Counter-ions that a name gives are not always drawn.

On to `C=CCN(C)[C@](C)(CO)Cc1ccc(Cl)c(Cl)c1` [Example 2, hydrochloride, (S)-(+)-N-allyl-2-methylamino-2-(3,4-dichlorobenzyl)-1-propanol], for which the ED50 in test [1] (setting [4]) amounted to 1.59 µmol/kg; in test [2], 1.84 µmol/kg. In addition, the “ED50, inhibition of histamine-induced bronchoconstriction, t = 20'” value in test [1] amounted to 0.42 µmol/kg; in test [3] (t = 20', 20 min), 0.70 µmol/kg. Moreover, the “ED50, inhibition of histamine-induced bronchoconstriction, t = 30'” value in test [1] (t = 30', 30 min) was 0.33 µmol/kg; in test [3] (t = 30', 30 min), 0.58 µmol/kg. Further, the “ED50, inhibition of histamine-induced bronchoconstriction, t = 40'” value in test [1] (t = 40', 40 min) came to 0.48 µmol/kg; in test [3] (t = 40', 40 min), 0.57 µmol/kg. In addition, the “ED50, inhibition of histamine-induced bronchoconstriction, t = 50'” value is 0.51 µmol/kg in test [1] (t = 50', 50 min) and 0.51 µmol/kg in test [3] (t = 50', 50 min). Also, the “ED50, inhibition of histamine-induced bronchoconstriction, t = 60'” value in test [1] (t = 60', 60 min) was determined as 0.56 µmol/kg; in test [3] (t = 60', 60 min) it was 0.53 µmol/kg. Also, the “ED50, inhibition of histamine-induced bronchoconstriction, t = 10'” value in test [3] (t = 10', 10 min) amounted to 1.68 μmol/kg.
Take `C=CCN(C)[C@](C)(CO)Cc1ccc(Cl)c(Cl)c1` [Example 2, base, (S)-(+)-N-allyl-2-methylamino-2-(3,4-dichlorobenzyl)-1-propanol]: the ED50 in test [1] (setting [5]) amounted to 0.59 µmol/kg; in test [1] (setting [6]) it was 0.65 µmol/kg; in test [1] (setting [7]) it was 0.63 µmol/kg; in test [1] (setting [8]), 0.62 µmol/kg; in test [3] (setting [4]) it was 1.27 µmol/kg; in test [3] (20 min, t = 20', read-out: ED50, inhibition of histamine-induced bronchoconstriction, t = 20'), 0.93 µmol/kg. Besides, the ED50 came out at 0.74 µmol/kg in test [3] (setting [5]), 0.96 µmol/kg in test [3] (setting [6]), 1.01 µmol/kg in test [3] (setting [7]) and 0.76 µmol/kg in test [3] (setting [8]). In test [1], the “ED50, inhibition of histamine-induced bronchoconstriction, t = 20'” value was 1.45 µmol/kg.
